Assay results published in US7071334B2, “6-(2-chloro-6-fluoro-phenyl)-triazolopyrimidines” (priority 2001, dated 2006).

Assays:
Type in all cases: in vivo
Pyrenophora teres = assay: Comparison Test 2: Control of net blotch on barley; conditions: barley treated with 250 ppm, inoculated next day, assessed after 6 days; untreated 100%
Septoria tritici = assay: Comparison Trial 3: Fungicidal control of leaf blotch on wheat (protective); conditions: wheat seedlings treated with 63 ppm, inoculated following day, assessed after 2 weeks; untreated 90%
Sphaerotheca fuliginea = assay: Comparison Test 5: Protective control of powdery mildew on cucumber; conditions: cucumber seedlings treated with 16 ppm, inoculated next day, assessed after 8 days; untreated 100%
Protocol: Cucumber seedlings of the variety “Chinesische Schlange” were grown in pots to the 2 leaf stage. The plants were then sprayed to run-off with an aqueous suspension, containing the concentration of active ingredient as described below, prepared from a stock solution containing 10% of the active ingredient, 85% cyclohexanone and 5% emulsifier. The next day the treated plants were inoculated with an aqueous spore suspension of cucumber powdery mildew (Sphaerotheca fuliginea). Then the trial plants were cultivated in a greenhouse at temperatures between 20 and 24° C. and a relative humidity between 60 and 80.%. After 8 days the extent of fungal attack on the leaves was visually assessed as % diseased leaf area.

Alternaria solani = assay: Comparison Test 1: Fungicidal control of early blight on tomatoes; conditions: another trial, tomato plants treated with 16 ppm; untreated 90%

## COc1nc2ncnn2c(C2CCCCC2)c1-c1c(F)cccc1Cl [C]
Pyrenophora teres
  infection (% diseased leaf area): 100%

## CCN(CC)c1c(-c2c(F)cccc2Cl)c(C#N)nc2ncnn12 [I-5]
Septoria tritici
  infection (% diseased leaf area): no infection

## N#Cc1nc2ncnn2c(C2CCCCC2)c1-c1c(F)cccc1Cl [D]
Pyrenophora teres
  infection (% diseased leaf area): 100%

## Cc1nc2ncnn2c(N2CCC(C)CC2)c1-c1c(F)cccc1Cl [E]
Sphaerotheca fuliginea
  infection (% diseased leaf area): 90%
Alternaria solani
  infection (% diseased leaf area): 30%
